Experimental data published in ChEMBL document CHEMBL1201862, “PubChem BioAssay data set” (2004).
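Five compound concentrations were applied to cells in 96-well plates for 48 hours; endpoints were derived by simple linear interpolation of the resulting dose-response curve. The concentration for 50% growth inhibition is given as GI50.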 Activity calls are given as the source filed them. Cut-off read from the data, not from the text of the source: active = GI50 up to about 1.1 µM and inactive = higher.

Legend:
Experiment in all cases: DTP human tumour cell line panel, 48 h
SF-268 = tested on: SF-268
KM12 = tested on: KM12
A549 = tested on: A549
IGROV-1 = tested on: IGROV-1
UACC-62 = tested on: UACC-62
Malme-3M = tested on: Malme-3M
M14 = tested on: M14
SF-295 = tested on: SF-295
COLO 205 = tested on: COLO 205
NCI-H522 = tested on: NCI-H522
EKVX = tested on: EKVX
HOP-92 = tested on: HOP-92
786-0 = tested on: 786-0
HL-60 = tested on: HL-60
HOP-62 = tested on: HOP-62
SR = tested on: SR

Compound | GI50 (SF-268) | GI50 (KM12) | GI50 (A549) | GI50 (IGROV-1) | GI50 (UACC-62) | GI50 (Malme-3M) | GI50 (M14) | GI50 (SF-295) | GI50 (COLO 205) | GI50 (NCI-H522) | GI50 (EKVX) | GI50 (HOP-92) | GI50 (786-0) | GI50 (HL-60) | GI50 (HOP-62) | GI50 (SR)
O=C(N/N=C1\C(=O)N(c2nccs2)C(=O)C(=O)C1c1nc2ccccc2s1)c1ccccc1O (configuration not stated) | 12.1 µM (inactive) | 54.5 µM (inactive) | 52.1 µM (inactive) | 25.9 µM (inactive) | 31.3 µM (inactive) | > 100 µM (inactive) | > 100 µM (inactive) | 47.5 µM (inactive) | > 100 µM (inactive) | 30.2 µM (inactive) | > 100 µM (inactive) | > 100 µM (inactive) | > 100 µM (inactive) | 36.7 µM (inactive) | 23.9 µM (inactive) | –
Cc1cc(C(O)CCCc2ccccc2)cc(C)c1O (configuration not stated) | 28.4 µM (inactive) | 29.6 µM (inactive) | 32.7 µM (inactive) | 83.6 µM (inactive) | 35.9 µM (inactive) | 18.9 µM (inactive) | 56.1 µM (inactive) | 28.8 µM (inactive) | 67.6 µM (inactive) | 27.4 µM (inactive) | 20.5 µM (inactive) | – | 40.6 µM (inactive) | 16.6 µM (inactive) | 33.3 µM (inactive) | –
CC(=O)OC12/C(=N/O)CCCCCC1c1ccccc12 (configuration not stated) | > 100 µM (inactive) | > 100 µM (inactive) | > 100 µM (inactive) | – | 95.5 µM (inactive) | > 100 µM (inactive) | – | 96.8 µM (inactive) | > 100 µM (inactive) | 31.2 µM (inactive) | 68.1 µM (inactive) | – | > 100 µM (inactive) | 64.3 µM (inactive) | > 100 µM (inactive) | 30.4 µM (inactive)
CCOC(=O)c1cn(CC)c2cc3c(cc2c1=O)SCS3 | > 100 µM (inactive) | > 100 µM (inactive) | > 100 µM (inactive) | > 100 µM (inactive) | > 100 µM (inactive) | > 100 µM (inactive) | > 100 µM (inactive) | > 100 µM (inactive) | > 100 µM (inactive) | > 100 µM (inactive) | > 100 µM (inactive) | > 100 µM (inactive) | > 100 µM (inactive) | > 100 µM (inactive) | > 100 µM (inactive) | –
CN(C)CCNC(=O)c1cccc2cc3c(Cl)cccc3nc12 | – | 1.31 µM (inactive) | 0.556 µM (active) | 1.2 µM (inactive) | 1.69 µM (inactive) | 0.865 µM (active) | 2.12 µM (inactive) | – | 1.01 µM (active) | 2.86 µM (inactive) | 2.35 µM (inactive) | 2.07 µM (inactive) | 1.12 µM (active) | – | 0.718 µM (active) | 0.308 µM (active)
COc1cc([C@@H]2c3cc4c(cc3[C@@H](OC(=O)c3cccc(N)c3)C3COC(=O)[C@@H]32)OCO4)cc(OC)c1O (some centres not stated) | 1.47 µM (inactive) | 17.8 µM (inactive) | 1.63 µM (inactive) | 13.8 µM (inactive) | 0.667 µM (active) | 2.37 µM (inactive) | 0.933 µM (active) | 0.32 µM (active) | 11.3 µM (inactive) | – | 27 µM (inactive) | – | 2.49 µM (inactive) | 2.7 µM (inactive) | 2.32 µM (inactive) | 0.565 µM (active)
CCOC(=O)C1(C)CCCCC(=O)N1 (configuration not stated) | > 100 µM (inactive) | – | > 100 µM (inactive) | > 100 µM (inactive) | > 100 µM (inactive) | > 100 µM (inactive) | > 100 µM (inactive) | > 100 µM (inactive) | > 100 µM (inactive) | – | > 100 µM (inactive) | > 100 µM (inactive) | > 100 µM (inactive) | > 100 µM (inactive) | > 100 µM (inactive) | –
O=C(CC(=O)C1=CNc2ccccc2S1)C(=O)Nc1ccc(Cl)cc1 | > 50 µM (inactive) | > 50 µM (inactive) | > 50 µM (inactive) | > 50 µM (inactive) | > 50 µM (inactive) | > 50 µM (inactive) | > 50 µM (inactive) | > 50 µM (inactive) | > 50 µM (inactive) | > 50 µM (inactive) | > 50 µM (inactive) | > 50 µM (inactive) | > 50 µM (inactive) | > 34 µM (inactive) | > 50 µM (inactive) | –
COC(=O)C(=O)C(C#N)c1nc2ccccc2s1 (configuration not stated) | > 100 µM (inactive) | – | > 100 µM (inactive) | > 100 µM (inactive) | > 100 µM (inactive) | > 100 µM (inactive) | > 100 µM (inactive) | > 100 µM (inactive) | > 100 µM (inactive) | > 100 µM (inactive) | > 100 µM (inactive) | > 100 µM (inactive) | > 100 µM (inactive) | 92.9 µM (inactive) | > 100 µM (inactive) | –
CN(c1ccccc1)c1c(Cl)c(=O)oc2c1ccc1occc12 | – | – | > 100 µM (inactive) | – | 40.6 µM (inactive) | > 100 µM (inactive) | > 100 µM (inactive) | > 100 µM (inactive) | – | > 100 µM (inactive) | 33.3 µM (inactive) | 67.3 µM (inactive) | > 100 µM (inactive) | 15.6 µM (inactive) | – | 44 µM (inactive)
Nc1ccc(C2=N/C(=C\c3cccc(N)c3)C(=O)O2)cc1 | > 100 µM (inactive) | > 100 µM (inactive) | > 100 µM (inactive) | > 100 µM (inactive) | > 100 µM (inactive) | > 100 µM (inactive) | > 100 µM (inactive) | > 100 µM (inactive) | > 100 µM (inactive) | > 100 µM (inactive) | > 100 µM (inactive) | > 100 µM (inactive) | > 100 µM (inactive) | 57.5 µM (inactive) | – | > 100 µM (inactive)
Cc1ccc(/N=N/c2c(C)nn(-c3ccccc3)c2C)c(Br)c1 | > 100 µM (inactive) | 95.5 µM (inactive) | > 100 µM (inactive) | > 100 µM (inactive) | 89.9 µM (inactive) | > 100 µM (inactive) | > 100 µM (inactive) | > 100 µM (inactive) | > 100 µM (inactive) | – | > 100 µM (inactive) | > 100 µM (inactive) | > 100 µM (inactive) | 6.84 µM (inactive) | > 100 µM (inactive) | –
O=C(Nc1nc2ncn(CCOC(=O)c3ccccc3)c2c(=S)[nH]1)c1ccccc1 | 13.5 µM (inactive) | > 100 µM (inactive) | 66.2 µM (inactive) | > 100 µM (inactive) | 56.2 µM (inactive) | 42.5 µM (inactive) | > 100 µM (inactive) | 45 µM (inactive) | > 100 µM (inactive) | 21 µM (inactive) | > 100 µM (inactive) | 42.7 µM (inactive) | 62.5 µM (inactive) | > 100 µM (inactive) | 28.2 µM (inactive) | –
CC1CN1c1c(C(=O)/C=C/c2ccc(Cl)cc2)c(-c2ccccc2)nn(C)c1=O (configuration not stated) | 3.98 µM (inactive) | 3.3 µM (inactive) | 4.42 µM (inactive) | 3.05 µM (inactive) | 2.32 µM (inactive) | 8.97 µM (inactive) | 1.95 µM (inactive) | 3.96 µM (inactive) | 1.96 µM (inactive) | 2.18 µM (inactive) | 3.63 µM (inactive) | > 10 µM (inactive) | 2.81 µM (inactive) | 2.23 µM (inactive) | 2.82 µM (inactive) | –
CCOC(=O)C1(Cc2ccc3ccccc3c2)CCCCCN1 (configuration not stated) | 58.5 µM (inactive) | – | 52.4 µM (inactive) | > 100 µM (inactive) | 46.3 µM (inactive) | 16.5 µM (inactive) | 20 µM (inactive) | 19 µM (inactive) | 18.7 µM (inactive) | – | 69.5 µM (inactive) | 13.9 µM (inactive) | 17.3 µM (inactive) | 18.8 µM (inactive) | 64.3 µM (inactive) | –
Cc1nc2c(nc1C)C(=O)C1=C(C2=O)C2C=CC1CC2 | 5.42 µM (inactive) | 13.5 µM (inactive) | 19.4 µM (inactive) | 2.63 µM (inactive) | 2.86 µM (inactive) | 11.8 µM (inactive) | 12.8 µM (inactive) | 11.7 µM (inactive) | 14.9 µM (inactive) | 4.35 µM (inactive) | 7 µM (inactive) | 1.97 µM (inactive) | 11.9 µM (inactive) | 1.44 µM (inactive) | 22.3 µM (inactive) | –
c1ccc([P+](c2ccccc2)(c2ccccc2)C2Sc3ccccc3S2)cc1 | 17.2 µM (inactive) | 21.9 µM (inactive) | 15 µM (inactive) | > 100 µM (inactive) | 13.8 µM (inactive) | 13.9 µM (inactive) | 15.3 µM (inactive) | 17.4 µM (inactive) | 16.7 µM (inactive) | 14.9 µM (inactive) | 22.9 µM (inactive) | > 100 µM (inactive) | 17.3 µM (inactive) | 5.96 µM (inactive) | 23.1 µM (inactive) | –
CC1=C(C)C(=O)c2c(cc3ccccn23)C1=O | 20.9 µM (inactive) | 16.6 µM (inactive) | 18.4 µM (inactive) | 24.5 µM (inactive) | 15.6 µM (inactive) | 4.9 µM (inactive) | 14.2 µM (inactive) | 17.1 µM (inactive) | 20.3 µM (inactive) | – | 21.3 µM (inactive) | – | 27.9 µM (inactive) | 17.4 µM (inactive) | – | 23.3 µM (inactive)
Oc1cc(O)c2c(-c3c(O)c(-c4ccc(O)c(O)c4)[o+]c4cc(O)cc(O)c34)c(O)c(-c3ccc(O)c(O)c3)[o+]c2c1 | 40.3 µM (inactive) | 35.1 µM (inactive) | 48.2 µM (inactive) | 48 µM (inactive) | 22.6 µM (inactive) | 46 µM (inactive) | 55.5 µM (inactive) | 41.8 µM (inactive) | 42.5 µM (inactive) | – | 28.7 µM (inactive) | 36.7 µM (inactive) | 35.5 µM (inactive) | > 10 µM (inactive) | 38.9 µM (inactive) | 25.9 µM (inactive)
